# Reference: EP0980535B1, “PHOTOCHROMIC COMPOSITIONS, PHOTOCHROMIC COMPOUNDS (CO)POLYMER MATRICES” (Corning S.A., priority 1997, dated 1998)
# Assay: Photochromic properties of the compound in the (co)polymer matrix under xenon lamp exposure
# Assay type: physicochemical
# Conditions: for color exhibited: color of the photochromic compound; for λmax (nm): same conditions as compound (I): 0.05% by weight in matrix; for T0 (%) / DO induced: same conditions as compound (I); for DO induced: xenon lamp (40.000 lux)
# Experimental: The matrix is based on a short-chain (meth)acrylate difunctional monomer and a long-chain alkenic difunctional monomer. Used at 0.05% by weight within the matrix (conditioned under 2 mm thickness), the compound has led to the results shown in the Table below.
# Compounds C1, C2, C3, other naphthopyrans according to the application WO-A-94 22850, are identified by their developed formula in the Example part of the text. All compounds (II), C1, C2, C3 were tested under the same conditions as those indicated above with reference to compound (I).
# The half-time of fading : t1/2, expressed in seconds is specified below for each one of the compounds. This parameter characterizes the kinetics of the return to the initial state (after darkening)(see its exact definition given earlier in the present text with reference to the Table grouping the properties of compound (I)).
# [1] = 0.05% by weight within the matrix, 2 mm thickness
# [2] = optical density after minus before exposure under a xenon lamp (40.000 lux), 0.05% by weight in matrix, 2 mm
# [3] = transmission before exposure, 0.05% by weight in matrix, 2 mm
SMILES,λmax 1 [1] [nm],λmax 2 [1] [nm],color exhibited,DOinduced** at 489 nm [2],DOinduced** at 588 nm [2],T0* at 489 nm [3] [%],T0* at 588 nm [3] [%],λmax (nm) (2 mm),T0 (%) (transmission before exposure),DO induced
"COc1ccc(C2(c3ccc(N(C)C)cc3)C=Cc3c(C)cc4c(OC)cc(OC)cc4c3O2)cc1 (centres unmarked) [Compound (I), 2-(p-dimethylaminophenyl)-2-(p-methoxyphenyl)-5-methyl-7,9-dimethoxy-[2H]-naphtho[1,2-b]pyran]",489,588,violet,0.58,0.94,85,86,,,
"COc1ccc(C2(c3ccccc3)C=Cc3c(cc(N4CCOCC4)c4ccccc34)O2)cc1 (centres unmarked) [Compound (II), 3-(p-methoxyphenyl)-3-phenyl-6-morpholino-3H-naphtho-[2,1-b]pyran]",,,yellow,,,,,439,79,1.65
"COc1ccc(C2(c3ccc(OC)cc3)C=Cc3c(cc(N4CCOCC4)c4ccccc34)O2)cc1 [Compound C1, reference compound]",,,,,,,,456,74,1.37
"COc1ccc(C2(c3ccc(C(F)(F)F)cc3)C=Cc3c(cc(N4CCOCC4)c4ccccc34)O2)cc1 (centres unmarked) [Compound C2, reference compound]",,,,,,,,430,68,1.60
"COc1ccc(C2(c3ccccc3)C=Cc3c(cc(N4CCCCC4)c4ccccc34)O2)cc1 (centres unmarked) [Compound C3, reference compound]",,,,,,,,430,79,1.77
